From paper PMC7178174, “Residues in Transmembrane Segments of the P2X4 Receptor Contribute to Channel Function and Ethanol Sensitivity” (International Journal of Molecular Sciences, 2020)
Changes are numbered by the printed parent chain.

Tests used:
Format in all cases: cell-based
[1] = molecular target: T1, rat P2X4R (P2X4 receptor) (Rattus norvegicus, UniProt P51577); assay: two-electrode voltage clamp, Xenopus oocytes, ATP-gated current
T1 construct: gene P2rx4; full-length cDNA in pcDNA3, cRNA expressed in Xenopus laevis oocytes; homomeric trimer; ~60 kDa band
T1 sequence (P51577 1-388): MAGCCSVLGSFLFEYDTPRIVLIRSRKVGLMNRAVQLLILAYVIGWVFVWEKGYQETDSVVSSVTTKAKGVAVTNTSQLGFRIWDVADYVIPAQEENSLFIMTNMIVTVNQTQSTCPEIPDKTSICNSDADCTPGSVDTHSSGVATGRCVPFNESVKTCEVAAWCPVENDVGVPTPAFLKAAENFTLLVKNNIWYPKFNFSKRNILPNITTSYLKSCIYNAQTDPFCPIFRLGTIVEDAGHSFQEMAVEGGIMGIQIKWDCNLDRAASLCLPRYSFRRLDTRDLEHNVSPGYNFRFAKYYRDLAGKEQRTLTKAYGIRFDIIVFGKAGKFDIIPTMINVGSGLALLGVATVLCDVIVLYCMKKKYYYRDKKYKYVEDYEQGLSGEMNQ
Text: (§1) two-electrode voltage clamp, Xenopus oocytes, ATP-gated current on rat P2X4R (P2X4 receptor)

[2] = molecular target: T2, rat P2X4R (P2X4 receptor) (Rattus norvegicus, UniProt P51577, A34W); assay: as above
T2 construct: gene P2rx4; full-length cDNA in pcDNA3, cRNA expressed in Xenopus laevis oocytes; homomeric trimer; ~60 kDa band
T2 sequence (P51577 1-388 A34W): T1 sequence (P51577 1-388) with A34W
Text: as §1

[3] = molecular target: T3, rat P2X4R (P2X4 receptor) (Rattus norvegicus, UniProt P51577, F48A); assay: as above
T3 construct: gene P2rx4; full-length cDNA in pcDNA3, cRNA expressed in Xenopus laevis oocytes; homomeric trimer; ~60 kDa band
T3 sequence (P51577 1-388 F48A): T1 sequence (P51577 1-388) with F48A
Text: as §1

[4] = molecular target: T4, rat P2X4R (P2X4 receptor) (Rattus norvegicus, UniProt P51577, L37A); assay: as above
T4 construct: gene P2rx4; full-length cDNA in pcDNA3, cRNA expressed in Xenopus laevis oocytes; homomeric trimer; ~60 kDa band
T4 sequence (P51577 1-388 L37A): T1 sequence (P51577 1-388) with L37A
Text: as §1

[5] = molecular target: T5, rat P2X4R (P2X4 receptor) (Rattus norvegicus, UniProt P51577, R33A); assay: as above
T5 construct: gene P2rx4; full-length cDNA in pcDNA3, cRNA expressed in Xenopus laevis oocytes; homomeric trimer; ~60 kDa band
T5 sequence (P51577 1-388 R33A): T1 sequence (P51577 1-388) with R33A
Text: as §1

[6] = molecular target: T6, rat P2X4R (P2X4 receptor) (Rattus norvegicus, UniProt P51577, R33K); assay: as above
T6 construct: gene P2rx4; full-length cDNA in pcDNA3, cRNA expressed in Xenopus laevis oocytes; homomeric trimer; ~60 kDa band
T6 sequence (P51577 1-388 R33K): T1 sequence (P51577 1-388) with R33K
Text: as §1

[7] = molecular target: T7, rat P2X4R (P2X4 receptor) (Rattus norvegicus, UniProt P51577, R33L); assay: as above
T7 construct: gene P2rx4; full-length cDNA in pcDNA3, cRNA expressed in Xenopus laevis oocytes; homomeric trimer; ~60 kDa band
T7 sequence (P51577 1-388 R33L): T1 sequence (P51577 1-388) with R33L
Text: as §1

[8] = molecular target: T8, rat P2X4R (P2X4 receptor) (Rattus norvegicus, UniProt P51577, R33S); assay: as above
T8 construct: gene P2rx4; full-length cDNA in pcDNA3, cRNA expressed in Xenopus laevis oocytes; homomeric trimer; ~60 kDa band
T8 sequence (P51577 1-388 R33S): T1 sequence (P51577 1-388) with R33S
Text: as §1

[9] = molecular target: T9, rat P2X4R (P2X4 receptor) (Rattus norvegicus, UniProt P51577, V49G); assay: as above
T9 construct: gene P2rx4; full-length cDNA in pcDNA3, cRNA expressed in Xenopus laevis oocytes; homomeric trimer; ~60 kDa band
T9 sequence (P51577 1-388 V49G): T1 sequence (P51577 1-388) with V49G
Text: as §1

[10] = molecular target: T10, rat P2X4R (P2X4 receptor) (Rattus norvegicus, UniProt P51577, V49L); assay: as above
T10 construct: gene P2rx4; full-length cDNA in pcDNA3, cRNA expressed in Xenopus laevis oocytes; homomeric trimer; ~60 kDa band
T10 sequence (P51577 1-388 V49L): T1 sequence (P51577 1-388) with V49L
Text: as §1

[11] = molecular target: T11, rat P2X4R (P2X4 receptor) (Rattus norvegicus, UniProt P51577, W46A); assay: as above
T11 construct: gene P2rx4; full-length cDNA in pcDNA3, cRNA expressed in Xenopus laevis oocytes; homomeric trimer; ~60 kDa band
T11 sequence (P51577 1-388 W46A): T1 sequence (P51577 1-388) with W46A
Text: as §1

[12] = molecular target: T1, rat P2X4R (P2X4 receptor); assay: two-electrode voltage clamp, Xenopus oocytes, inhibition of ATP-gated current; conditions: read-out: % inhibition at 100 mM

SMILES	EC50 [1] [µM]	EC50 [2] [µM]	EC50 [3] [µM]	EC50 [4] [µM]	EC50 [5] [µM]	EC50 [6] [µM]	EC50 [7] [µM]	EC50 [8] [µM]	EC50 [9] [µM]	EC50 [10] [µM]	EC50 [11] [µM]	inhibition at 100000 µM [12] [%]
Nc1ncnc2c1ncn2[C@@H]1O[C@H](COP(=O)(O)OP(=O)(O)OP(=O)(O)O)[C@@H](O)[C@H]1O [ATP]	5.74 ± 0.45	6.5 ± 1.02	3.53 ± 0.73	8.91 ± 0.84	7.04 ± 0.51	6.33 ± 0.93	5.06 ± 0.7	4.94 ± 1.09	9.6 ± 0.9	10.6 ± 1.3	3.58 ± 0.57	–
CCO [ethanol]	–	–	–	–	–	–	–	–	–	–	–	44 ± 4
